From article PMC5737456 (Pain, 2017) come the findings set out here.

What all share (format): cell-based
In assay [1] the target is T1, human TRESK (hTRESK) (Homo sapiens, UniProt Q7Z418).
T1 sequence (Q7Z418 1-384): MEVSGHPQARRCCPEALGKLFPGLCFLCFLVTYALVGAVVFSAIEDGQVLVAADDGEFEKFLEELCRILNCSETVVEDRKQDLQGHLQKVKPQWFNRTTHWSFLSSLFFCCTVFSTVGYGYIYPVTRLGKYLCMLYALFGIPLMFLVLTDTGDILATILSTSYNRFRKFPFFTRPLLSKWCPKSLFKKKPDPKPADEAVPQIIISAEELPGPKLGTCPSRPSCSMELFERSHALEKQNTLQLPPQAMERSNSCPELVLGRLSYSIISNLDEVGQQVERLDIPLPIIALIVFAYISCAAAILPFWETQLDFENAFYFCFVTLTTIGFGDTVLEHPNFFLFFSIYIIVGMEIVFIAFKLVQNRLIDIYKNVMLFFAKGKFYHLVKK
Nature of the assay: whole-cell patch clamp in transfected HEK293 cells, single concentration […]. The following applies: HEK293, read-out: % inhibition at 20 μM.

The next assay deals with T2, rat TRESK (Rattus norvegicus, UniProt Q6Q1P3).
T2 sequence (Q6Q1P3 1-405): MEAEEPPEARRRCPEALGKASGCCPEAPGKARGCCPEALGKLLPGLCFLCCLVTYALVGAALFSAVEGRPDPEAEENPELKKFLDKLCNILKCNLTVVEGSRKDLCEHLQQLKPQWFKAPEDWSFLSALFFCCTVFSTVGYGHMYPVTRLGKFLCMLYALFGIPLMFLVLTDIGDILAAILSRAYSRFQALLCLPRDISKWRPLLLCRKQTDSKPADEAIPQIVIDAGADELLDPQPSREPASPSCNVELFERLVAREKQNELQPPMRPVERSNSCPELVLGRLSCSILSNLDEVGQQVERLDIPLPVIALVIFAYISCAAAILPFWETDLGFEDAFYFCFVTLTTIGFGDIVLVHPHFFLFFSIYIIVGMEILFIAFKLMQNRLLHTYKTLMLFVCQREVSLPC
Nature of the assay: whole-cell patch clamp in transfected HEK293 cells, […]. For orientation: Patch clamp records ionic current or voltage across a cell membrane.

Another assay deals with T3, mouse TRESK (mTRESK) (Mus musculus, UniProt Q6VV64).
T3 sequence (Q6VV64 1-394): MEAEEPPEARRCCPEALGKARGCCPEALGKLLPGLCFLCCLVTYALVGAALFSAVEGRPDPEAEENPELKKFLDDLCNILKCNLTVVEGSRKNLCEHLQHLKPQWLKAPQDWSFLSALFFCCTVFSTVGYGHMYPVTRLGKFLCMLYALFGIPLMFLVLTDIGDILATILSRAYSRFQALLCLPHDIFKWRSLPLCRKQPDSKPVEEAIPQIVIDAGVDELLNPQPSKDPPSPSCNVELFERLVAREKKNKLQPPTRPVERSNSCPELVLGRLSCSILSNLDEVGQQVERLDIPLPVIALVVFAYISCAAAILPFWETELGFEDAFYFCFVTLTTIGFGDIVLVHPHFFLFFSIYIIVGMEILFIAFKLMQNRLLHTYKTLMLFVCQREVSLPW
Nature of the assay: whole-cell patch clamp dose-response.

Another assay addresses T4, human TREK-2 (hTREK-2) (Homo sapiens, UniProt P57789).
T4 sequence (P57789 1-538): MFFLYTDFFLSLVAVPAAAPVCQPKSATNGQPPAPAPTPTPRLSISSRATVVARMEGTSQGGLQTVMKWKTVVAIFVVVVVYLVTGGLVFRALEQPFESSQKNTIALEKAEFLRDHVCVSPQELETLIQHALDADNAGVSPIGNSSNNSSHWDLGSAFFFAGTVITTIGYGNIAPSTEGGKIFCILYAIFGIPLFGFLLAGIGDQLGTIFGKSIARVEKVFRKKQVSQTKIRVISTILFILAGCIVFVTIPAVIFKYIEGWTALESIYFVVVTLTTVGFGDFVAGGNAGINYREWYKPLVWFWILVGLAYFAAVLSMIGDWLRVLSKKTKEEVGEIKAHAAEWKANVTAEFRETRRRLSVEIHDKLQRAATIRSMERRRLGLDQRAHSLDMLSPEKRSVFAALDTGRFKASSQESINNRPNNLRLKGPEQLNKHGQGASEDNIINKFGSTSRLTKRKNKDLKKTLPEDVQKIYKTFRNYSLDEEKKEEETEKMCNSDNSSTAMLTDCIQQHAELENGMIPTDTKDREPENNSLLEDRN
The assay can be described thus: whole-cell patch clamp in transfected HEK293 cells, dose-response.

Assay [2] has as its target T1, human TRESK (hTRESK). Described as above.
The target of a further assay is T5, mouse TRAAK (mTRAAK) (Mus musculus, UniProt O88454).
T5 sequence (O88454 1-398): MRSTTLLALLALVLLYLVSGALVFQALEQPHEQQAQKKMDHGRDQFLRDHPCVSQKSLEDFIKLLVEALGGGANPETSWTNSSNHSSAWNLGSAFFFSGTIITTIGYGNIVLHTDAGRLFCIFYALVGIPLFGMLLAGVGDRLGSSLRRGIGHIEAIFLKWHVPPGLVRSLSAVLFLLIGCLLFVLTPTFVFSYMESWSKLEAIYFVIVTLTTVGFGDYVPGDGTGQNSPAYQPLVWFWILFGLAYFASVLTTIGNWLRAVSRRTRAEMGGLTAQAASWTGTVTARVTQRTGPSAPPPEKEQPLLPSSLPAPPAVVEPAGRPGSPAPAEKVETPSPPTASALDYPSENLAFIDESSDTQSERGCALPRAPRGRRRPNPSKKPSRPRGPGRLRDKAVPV
The description is as above.

What is called inhibition is the change of the read-out against control, counted positive when it falls. For the molecule `CC1(C)[C@H](C(=O)O[C@H](C#N)c2cccc(Oc3ccccc3)c2)[C@@H]1C=C(Br)Br` [DM, deltamethrin], at human TRESK (hTRESK) [1], the inhibition at 20 µM was found to be 30%.

Turning to `CC1(C)C(C=C(Cl)Cl)C1C(=O)OCc1cccc(Oc2ccccc2)c1` (stereo not shown) [PM, permethrin], the inhibition at 20 µM at human TRESK (hTRESK) [1] stood at 27%.

By IC50 is commonly meant the concentration needed to halve the response being measured. Low values mean inhibition by little substance, high ones a need for much substance. With `CC(C)=CC1C(C(=O)OCN2C(=O)C3=C(CCCC3)C2=O)C1(C)C` (stereo not shown) [TM, Tetramethrin], on rat TRESK, the “whole-cell patch clamp in transfected HEK293 cells, 20 μM” value is “TM was also tested on rat and mouse TRESK orthologs, with similar inhibitory effects”. Moreover, the IC50 stood at 34.9 µM against mouse TRESK (mTRESK), 75.6 µM at human TREK-2 (hTREK-2), 10.7 µM at human TRESK (hTRESK) [2] and 12.6 µM at mouse TRAAK (mTRAAK).
